Tests used:
Test in all cases: combination Emax (second highest fraction inhibited in the dose matrix, 72 h); higher = more inhibition; extreme values may be limits of the assay
[1] = tested on: ARH-77 (Non-Cancerous)
Procedure, shortened: (§1)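 Cell lines in DMEM/F12 or RPMI with 10% FBS were plated in 1536-well plates, held 24 hours at 37°C, 5% CO2, then given two-drug dose matrices for 72 hours (DMSO typically 0.2%). Viability was read by CellTiter-Glo 2.0 luminescence and scaled as inhibition from 0 (vehicle wells) to 1 (blank wells). Combination Emax is the second-highest inhibition in the matrix; Bliss excess is observed combination effect minus expected EA + EB − EA·EB, EA and EB being single-agent effects.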

[2] = tested on: IGR-37 (Melanoma)
Procedure, shortened: as §1

[3] = tested on: NY (Osteosarcoma)
Procedure, shortened: as §1

[4] = tested on: Hs-445 (Non-Cancerous)
Procedure, shortened: as §1

[5] = tested on: BICR22 (Oral Cavity Carcinoma)
Procedure, shortened: as §1

[6] = tested on: CAS-1 (Glioblastoma)
Procedure, shortened: as §1

[7] = tested on: ECC10 (Gastric Carcinoma)
Procedure, shortened: as §1

[8] = tested on: COLO-320-HSR (Colorectal Carcinoma)
Procedure, shortened: as §1

[9] = tested on: SK-MES-1 (Squamous Cell Lung Carcinoma)
Procedure, shortened: as §1

[10] = tested on: NCI-H1693 (Lung Adenocarcinoma)
Procedure, shortened: as §1

[11] = tested on: SISO (Cervical Carcinoma)
Procedure, shortened: as §1

[12] = tested on: U-2-OS (Osteosarcoma)
Procedure, shortened: as §1

[13] = tested on: OS-RC-2 (Kidney Carcinoma)
Procedure, shortened: as §1

[14] = tested on: NCI-H1666 (Lung Adenocarcinoma)
Procedure, shortened: as §1

[15] = tested on: SK-MG-1 (Low Grade Glioma)
Procedure, shortened: as §1

[16] = tested on: COR-L311 (Small Cell Lung Carcinoma)
Procedure, shortened: as §1

[17] = tested on: LN-405 (Glioblastoma)
Procedure, shortened: as §1

[18] = tested on: A498 (Kidney Carcinoma)
Procedure, shortened: as §1

[19] = tested on: PANC-10-05 (Pancreatic Carcinoma)
Procedure, shortened: as §1

[20] = tested on: NCI-H2141 (Small Cell Lung Carcinoma)
Procedure, shortened: as §1

Compound	combination Emax [1]	combination Emax [2]	combination Emax [3]	combination Emax [4]	combination Emax [5]	combination Emax [6]	combination Emax [7]	combination Emax [8]	combination Emax [9]	combination Emax [10]	combination Emax [11]	combination Emax [12]	combination Emax [13]	combination Emax [14]	combination Emax [15]	combination Emax [16]	combination Emax [17]	combination Emax [18]	combination Emax [19]	combination Emax [20]
CC1(C)CCC(CN2CCN(c3ccc(C(=O)NS(=O)(=O)c4ccc(NCC5CCOCC5)c([N+](=O)[O-])c4)c(Oc4cnc5[nH]ccc5c4)c3)CC2)=C(c2ccc(Cl)cc2)C1 [Venetoclax] + CN(C)CCCOc1ccc(-c2ccc3ncc4c(c3c2)n(C2CCOCC2)c(=O)n4C)cn1 [AZD0156] (first compound max 1 µM, 7x7, partner max 1 µM)	0.297	0.503	0.551	0.221	0.337	0.239	0.963	0.198	0.216	0.221	0.148	0.188	0.249	0.225	0.275	0.604	0.306	0.263	0.229	0.148
CC1(C)CCC(CN2CCN(c3ccc(C(=O)NS(=O)(=O)c4ccc(NCC5CCOCC5)c([N+](=O)[O-])c4)c(Oc4cnc5[nH]ccc5c4)c3)CC2)=C(c2ccc(Cl)cc2)C1 [Venetoclax] + COc1cc(Nc2ncc3c(n2)-c2ccc(Cl)cc2C(c2c(F)cccc2OC)=NC3)ccc1C(=O)O [Alisertib] (first compound max 1 µM, 7x7, partner max 10 µM)	0.932	0.486	0.654	0.857	0.501	0.744	0.963	0.296	0.4	0.344	0.543	0.4	0.319	0.501	0.365	0.842	0.513	0.386	0.302	0.518
CC1(C)CCC(CN2CCN(c3ccc(C(=O)NS(=O)(=O)c4ccc(NCC5CCOCC5)c([N+](=O)[O-])c4)c(Oc4cnc5[nH]ccc5c4)c3)CC2)=C(c2ccc(Cl)cc2)C1 [Venetoclax] + C[C@@H]1COCCN1C2=NC(=NC(=C2)C3(CC3)[S@](=N)(=O)C)C4=C5C=CNC5=NC=C4 [AZD6738] (first compound max 1 µM, 7x7, partner max 10 µM)	0.961	0.793	0.708	0.99	0.768	0.623	0.98	0.561	0.75	0.372	0.532	0.586	0.399	0.424	0.535	0.694	0.483	0.514	0.53	0.637
CC1(C)CCC(CN2CCN(c3ccc(C(=O)NS(=O)(=O)c4ccc(NCC5CCOCC5)c([N+](=O)[O-])c4)c(Oc4cnc5[nH]ccc5c4)c3)CC2)=C(c2ccc(Cl)cc2)C1 [Venetoclax] + C[C@@H](Nc1cc(F)cc(F)c1)c1cc(C(=O)N(C)C)cc2c(=O)cc(N3CCOCC3)oc12 [AZD8186] (first compound max 1 µM, 7x7, partner max 3 µM)	0.724	0.46	0.616	0.612	0.15	0.399	0.969	0.135	0.257	0.129	0.11	0.139	0.375	0.339	0.387	0.768	0.335	0.632	0.244	0.361
CC1(C)CCC(CN2CCN(c3ccc(C(=O)NS(=O)(=O)c4ccc(NCC5CCOCC5)c([N+](=O)[O-])c4)c(Oc4cnc5[nH]ccc5c4)c3)CC2)=C(c2ccc(Cl)cc2)C1 [Venetoclax] + Cc1cc2ncnn2cc1Nc1ncc2c(n1)n(C1CCOCC1)c(=O)n2C [AZD7648] (first compound max 1 µM, 7x7, partner max 10 µM)	0.559	0.556	0.578	0.405	0.291	0.279	0.955	0.174	0.155	0.26	0.164	0.206	0.274	0.232	0.28	0.671	0.373	0.381	0.332	0.178
CC1(C)CCC(CN2CCN(c3ccc(C(=O)NS(=O)(=O)c4ccc(NCC5CCOCC5)c([N+](=O)[O-])c4)c(Oc4cnc5[nH]ccc5c4)c3)CC2)=C(c2ccc(Cl)cc2)C1 [Venetoclax] + Cn1cnc2c(F)c(Nc3ccc(Br)cc3Cl)c(C(=O)NOCCO)cc21 [Selumetinib] (first compound max 1 µM, 7x7, partner max 3 µM)	0.369	0.879	0.485	0.395	0.141	0.158	0.937	0.083	0.345	0.26	0.196	0.169	0.169	0.575	0.185	0.635	0.182	0.433	0.398	0.159

Source: the supplement of paper PMC11061612
